Activity calls are given as the source filed them. No rule for the calls is given here.
Biological target: G-protein coupled estrogen receptor 1 (Homo sapiens) (UniProt Q99527)
Assay: GPR30 binders, concentration-response potency, dose response, cell-based (AID 1224)
Conditions: GPR30-expressing cells, fluorescent ligand binding displacement

Compound: O=C(O)c1ccc([N+](=O)[O-])c2c1NC(c1ccccc1)C1CC=CC21 (stereo not drawn)
- EC50: 62.3 nM

Compound: CC(=O)c1ccc2c(c1)C1C=CCC1C(c1cccc([N+](=O)[O-])c1)N2 (stereo not drawn)
- remaining binding, lower = displacement (at 100 µM (top of the series)): inactive

Compound: CC(=O)Oc1ccc(C2Nc3c(C(=O)O)ccc([N+](=O)[O-])c3C3C=CCC32)cc1 (stereo not drawn)
- EC50: > 10000 nM (inactive)

Reference: PubChem BioAssay AID1224 (NMMLSC, 2008)
